Legend:
[1] = test system: de novo synthesis of SM in CHO cells; test: Metabolic labeling of lipids with [14C]serine in CHO cells; type: cell-based, Chinese hamster
Method: CHO cells are cultured in Ham's F12 medium supplemented with 10% newborn bovine serum (NBS), penicillin G (100 unit/mL) and streptomycin sulfate (100 μg/mL) at the temperature of 33° C. and 5% CO2 atmosphere. In the case of HeLa cells, Dulbecco's minimum essential medium is used as a base medium instead of Ham's F12 medium.
Further, Nutridoma medium (Ham's F12 medium containing 1% Nutridoma-SP, product of Roche Molecular Biochemicals, and 25 μg/mL of gentamicin) is used as a serum-free medium. In the case when the medium is supplemented by DMSO or drugs dissolved in DMSO, the concentration of DMSO in culture medium is adjusted to be 0.01%.
CHO cells are seeded at the density of 1.0×10^6 cell in 5 mL of F12 medium containing 10% NBS, by per 60-mm dish, and cultured at 33° C. overnight. Then, the medium is changed to 1.5 mL of Nutridoma medium if necessary, various drugs are added and incubated at 4° C. for 15 minutes. Then, after addition of [^14C] serine (0.75 μCi) or [^14 C] choline (1.0 μCi) to the medium, cells were incubated at 33° C. for various periods of time.
Cells are washed twice with 2 mL of cold phosphate-buffered saline (PBS), and lysed with 900 μL of 0.1% sodium dodecyl sulfate (SDS). Then, 800 μL and 20 μL of lysate are used for lipid extraction and determination of protein concentration, respectively.
For the analysis of lipids labeled with [C^14C] serine, lipids were separated by TLC with a solvent consisting of methylacetate/n-propanol/chloroform/methanol/0.25%KCl (25:25:25:10:9, volume ratio) as a developing solvent.
Radioactive lipid separated on the TLC plates are detected with image analyzer depicted above. After the collection of gels from TLC plates by scraping, the radioactivity of each lipid is determined by liquid scintillation counting and normalized to the protein concentration of cells.

CHO cells = test: Viability of cells (MTT); type: cell-based, Chinese hamster; settings: 10 μM; data not shown
Method: CHO cells are seeded at a density of 2.0×10^4 per one hole of a 48-hole culture plate in 500 μL of F12 medium containing 10% NBS, and cultivated at 33[…] overnight. Then, the medium is changed to 500 μL of Nutridoma medium containing various concentrations of HPA compounds at 33° C. for 24 hours, and the viability of cells are determined using MTT as disclosed in Document 9.

[2] = test system: conversion of Cer to SM in intact cells; test: Conversion of [3H]Cer to [3H]SM in intact cells ([3H]sphingosine pulse-chase); type: cell-based, Chinese hamster; settings: 1 μM; chase at 33° C. up to 1 hour with fumonisin B1
Method: The measurement of conversion of [^3H] Cer to [^3H] SM in cells is performed by a modified method of the method disclosed in Document 1. That is, as the first step, cells are pulse-labeled in 1.5 mL of Nutridoma medium containing 1 μM D-erythro-[^3H] sphingosine (2.5 μCi). After washed, the cells are incubated in 1.5 mL of Nutridoma medium supplemented with or without 1 μM HPA-12 at 4° C. for 15 minutes, then incubated under the presence of 100 μM fumonisin B, at 33° C. for various periods of time for chase.
The lipids are extracted from the chased cells, and separated by TLC with a developing solvent consisting of chloroform/methanol/H2O (volume ratio, 65:25:4). Then, the radioactivity of each lipid is measured by the method mentioned above.
To examine the inhibitory effect of HPA-12 on the step of Cer-to-SM conversion specifically, metabolic labeling experiments with [^3H] sphingosine are carried out. When cells are labelled with [^3H] sphingosine at 15° C., [^3H] sphingosine is effectively N-acylated and converted to [^3H] Cer, but, [^3H] Cer is not converted to [^3H] SM at this temperature (Document 2). After the labeling with [^3H] sphingosine at low temperature to generate [^3H] Cer, the cells are treated with 1 μM HPA-12 at 4° C. for 15 minutes, and then incubated at 33° C. up to 1 hour for chase. During the chase, de novo synthesis of [^3H] […]

[3] = test system: SM synthesis in BFA-treated cells; test: [14C]serine labeling in BFA-treated cells (ER and Golgi merged); type: cell-based, Chinese hamster; settings: 1 μM; cells treated with 1 μg/mL BFA (FIG. 5)
Method: For the metabolic labeling by [^14C] serine in BFA-treated cells, the cells are preincubated with 1 μg/mL BFA in Nutridoma medium at 33° C. for 30 minutes, then, treated with or without 1 μM HPA-12 in the presence of 1 μg/mL BFA at 4° C. for 15 minutes prior to addition of [^14C] serine.

GlcCer synthase = biological target: T1, GlcCer synthase (Cricetulus griseus, UniProt A0A9J7CH29); test: GlcCer synthase enzyme assay, CHO membrane fraction; type: biochemical, Chinese hamster; settings: 20 μM; substrate C6-NBD-Cer
T1 construct: Membrane fraction prepared from CHO cells is used as an enzyme source; endogenous in cells; host or cells: CHO cells, membrane fraction
T1 sequence (A0A9J7CH29 1-394): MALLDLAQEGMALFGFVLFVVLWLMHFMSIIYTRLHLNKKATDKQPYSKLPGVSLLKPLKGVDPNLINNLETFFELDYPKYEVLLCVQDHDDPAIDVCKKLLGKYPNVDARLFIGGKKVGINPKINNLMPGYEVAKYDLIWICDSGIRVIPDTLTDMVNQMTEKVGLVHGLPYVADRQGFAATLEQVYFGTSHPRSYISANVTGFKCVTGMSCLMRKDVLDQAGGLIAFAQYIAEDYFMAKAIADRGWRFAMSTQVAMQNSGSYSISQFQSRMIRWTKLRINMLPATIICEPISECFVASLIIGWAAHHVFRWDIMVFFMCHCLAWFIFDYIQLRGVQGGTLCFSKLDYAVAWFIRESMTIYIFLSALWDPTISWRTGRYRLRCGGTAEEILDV
Method: Membrane fraction prepared from CHO cells is used as an enzyme source.
Enzyme assays of SM synthesis and GlcCer synthase are carried out by using C6-NBD-Cer as a substrate as disclosed in Document 6.

[4] = [14C]serine labeling, CHO cells
[5] = [14C]serine labeling, weaker than effect on SM (FIG. 2B)

In the case of `CCCCCCCCCCCC(=O)NC(CO)CC(O)c1ccccc1` (centres unmarked) [HPA-12, N-(3-hydroxy-1-hydroxymethyl-3-phenylprol)dodecaneamide], the “formation of [14C]SM” value ([1]; 0.1 μM, 2-hour labeling with [14C]serine (FIG. 2A)) is reported as “significantly inhibits”, the “formation of [14C] (SM), level relative to control” value ([1]; 1 μM, time course up to 5 hours (FIG. 2B)) is reported as “approximately 30 % of the drug-free control level” and the “formation of [14C]SM” value ([1]; 2.5 μM drug, [14C]serine labeling, CHO cells (FIG. 1B)) is reported as “remarkably inhibited”. The “concentration at which the inhibitory effect on [14C]SM formation reaches a plateau” value ([1]; 2-hour labeling with [14C]serine (FIG. 2A)) was “around 1 μM”, the “formation of [14C]phosphatidylethanolamine (PE)” value [1, 4] was “does not affect” and the “formation of [14C]phosphatidylserine (PS)” value [1, 4] was “does not affect”. For the same compound, the “formation of [14C]Cer” value [1, 5] was “significantly inhibited”, the “formation of [14C]GlcCer” value [1, 5] was “significantly inhibited” and the “toxicity to CHO cells” value (CHO cells) was “highly toxic”. For the same compound, the “formation of [3H]GlcCer” value [2] was “does not inhibit and rather increases”, the “inhibition of formation of [3H]SM” value [2] was 50% and the “formation of [14C]serine-derived SM” value [3] was “no longer inhibits”. For the same compound, the “C6-NBD-GlcCer formed (GlcCer synthase activity)” value (GlcCer synthase) was 325.9 ± 17.1 pmol/mg protein/10 minutes and the “inhibition of GlcCer synthase” value (GlcCer synthase) was “Neither of SM synthase nor GlcCer synthase is inhibited”.
